From US20250241895A1 (GH RESEARCH IRELAND LIMITED, priority 2022, published 2025)

Test system: patients with treatment-resistant major depressive disorder (TRD)
Test: Phase 1/2 clinical trial of inhaled 5-MeO-DMT in TRD
Details: for patients with at least one ADR: n=4
Protocol: This trial was designed in two parts. Part A was an open-label, single-arm, single-dose Phase 1 trial with two dose levels (12 mg (n=4) and 18 mg (n=4)). […] The primary endpoint of Part B was to assess the effects on the severity of depression, as assessed by the proportion of patients in remission on day seven after dosing, defined as a MADRS total score of less than or equal to 10.

[1] = 12 mg group n=4, sum of patient scores, 2 hours after dose
[2] = 12 mg group n=4, sum of patient scores, 3 hours after dose
[3] = 12 mg group n=4, sum of patient scores, baseline
[4] = 12 mg group n=4, sum of patient scores, day 1
[5] = 12 mg group n=4, sum of patient scores, day 7
[6] = IDR group n=8, sum of patient scores, 2 hours after last dose
[7] = IDR group n=8, sum of patient scores, 3 hours after last dose
[8] = IDR group n=8, sum of patient scores, baseline
[9] = IDR group n=8, sum of patient scores, day 1
[10] = IDR group n=8, sum of patient scores, day 7

Structure (SMILES): COc1ccc2[nH]cc(CCN(C)C)c2c1 [5-MeO-DMT]
- BPRS Anxiety percentage improvement (12 mg group n=4, day 7): 76.00%
- MADRS Pessimistic Thoughts percentage improvement (12 mg group n=4, day 7): 50.00%
- MADRS Reduced Sleep percentage improvement (12 mg group n=4, day 7): 50.00%
- MADRS Concentration Difficulties improvement [1]: 9
- MADRS Inability to Feel improvement [1]: 7
- MADRS Inner Tension improvement [1]: 11
- MADRS Lassitude improvement [1]: 6
- MADRS Lassitude score [1]: 10
- MADRS Pessimistic Thoughts improvement [1]: 8
- MADRS Suicidal Thoughts improvement [1]: 5
- MADRS Suicidal Thoughts score [1]: 3
- BPRS Anxiety improvement [2]: 14
- BPRS Blunted Affect improvement [2]: 3
- BPRS Emotional Withdrawal improvement [2]: 2
- BPRS Guilt Feelings improvement [2]: 9
- BPRS Tension improvement [2]: 5
- BPRS Anxiety score [3]: 25
- BPRS Blunted Affect score [3]: 11
- BPRS Emotional Withdrawal score [3]: 13
- BPRS Guilt Feelings score [3]: 18
- BPRS Tension score [3]: 14
- MADRS Concentration Difficulties score [3]: 16
- MADRS Inability to Feel score [3]: 16
- MADRS Inner Tension score [3]: 13
- MADRS Lassitude score [3]: 16
- MADRS Pessimistic Thoughts score [3]: 16
- MADRS Reduced Sleep score [3]: 12
- MADRS Suicidal Thoughts score [3]: 8
- BPRS Anxiety improvement [4]: 19
- BPRS Blunted Affect improvement [4]: 5
- BPRS Emotional Withdrawal improvement [4]: 5
- BPRS Emotional Withdrawal score [4]: 8
- BPRS Guilt Feelings improvement [4]: 13
- BPRS Tension improvement [4]: 8
- MADRS Concentration Difficulties improvement [4]: 14
- MADRS Inability to Feel improvement [4]: 15
- MADRS Inner Tension improvement [4]: 10
- MADRS Lassitude improvement [4]: 16
- MADRS Lassitude score [4]: 0
- MADRS Pessimistic Thoughts improvement [4]: 9
- MADRS Pessimistic Thoughts score [4]: 7
- MADRS Reduced Sleep improvement [4]: 2
- MADRS Suicidal Thoughts improvement [4]: 3
- BPRS Anxiety improvement [5]: 19
- BPRS Blunted Affect improvement [5]: 6
- BPRS Emotional Withdrawal improvement [5]: 7
- BPRS Guilt Feelings improvement [5]: 13
- BPRS Guilt Feelings score [5]: 5
- BPRS Tension improvement [5]: 8
- MADRS Concentration Difficulties improvement [5]: 13
- MADRS Inability to Feel improvement [5]: 15
- MADRS Inability to Feel score [5]: 1
- MADRS Inner Tension improvement [5]: 8
- MADRS Lassitude improvement [5]: 13
- MADRS Lassitude score [5]: 3
- MADRS Pessimistic Thoughts improvement [5]: 8
- MADRS Pessimistic Thoughts score [5]: 8
- MADRS Reduced Sleep improvement [5]: 6
- MADRS Suicidal Thoughts improvement [5]: 1
- MADRS Reduced Sleep percentage improvement (IDR group n=8, day 1): 52.00%
- MADRS Reduced Sleep percentage improvement (IDR group n=8, day 7): 64.00%
- MADRS Concentration Difficulties improvement [6]: 19
- MADRS Inability to Feel improvement [6]: 24
- MADRS Inner Tension improvement [6]: 15
- MADRS Lassitude improvement [6]: 17
- MADRS Pessimistic Thoughts improvement [6]: 21
- MADRS Suicidal Thoughts improvement [6]: 8
- BPRS Anxiety improvement [7]: 18
- BPRS Blunted Affect improvement [7]: 4
- BPRS Emotional Withdrawal improvement [7]: 5
- BPRS Guilt Feelings improvement [7]: 20
- BPRS Tension improvement [7]: 5
- BPRS Anxiety score [8]: 37
- BPRS Blunted Affect score [8]: 15
- BPRS Emotional Withdrawal score [8]: 13
- BPRS Guilt Feelings score [8]: 34
- BPRS Tension score [8]: 16
- MADRS Concentration Difficulties score [8]: 30
- MADRS Inability to Feel score [8]: 36
- MADRS Inner Tension score [8]: 26
- MADRS Lassitude score [8]: 27
- MADRS Pessimistic Thoughts score [8]: 28
- MADRS Reduced Sleep score [8]: 25
- MADRS Suicidal Thoughts score [8]: 11
- BPRS Anxiety improvement [9]: 21
- BPRS Blunted Affect improvement [9]: 7
- BPRS Emotional Withdrawal improvement [9]: 5
- BPRS Guilt Feelings improvement [9]: 23
- BPRS Tension improvement [9]: 5
- MADRS Concentration Difficulties improvement [9]: 29
- MADRS Inability to Feel improvement [9]: 34
- MADRS Inner Tension improvement [9]: 20
- MADRS Lassitude improvement [9]: 22
- MADRS Pessimistic Thoughts improvement [9]: 24
- MADRS Reduced Sleep improvement [9]: 13
- MADRS Suicidal Thoughts improvement [9]: 10
- BPRS Anxiety improvement [10]: 20
- BPRS Blunted Affect improvement [10]: 7
- BPRS Emotional Withdrawal improvement [10]: 5
- BPRS Guilt Feelings improvement [10]: 24
- BPRS Tension improvement [10]: 6
- MADRS Concentration Difficulties improvement [10]: 21
- MADRS Inability to Feel improvement [10]: 30
- MADRS Inner Tension improvement [10]: 14
- MADRS Lassitude improvement [10]: 24
- MADRS Pessimistic Thoughts improvement [10]: 25
- MADRS Reduced Sleep improvement [10]: 16
- MADRS Suicidal Thoughts improvement [10]: 8
- mean MADRS change from baseline (Part A, 12 mg group, day seven): −21.0
- mean MADRS change from baseline, percent (Part A, 12 mg group, day seven): −65%
- patients with at least one ADR (Part A, 12 mg single dose): 3 of 4
- further patients with MADRS clinical response (Part A, 18 mg group n=4, day seven after dosing): 25%
- mean MADRS change from baseline, percent (Part A, 18 mg group, day seven): −41%
- patients with at least one ADR (Part A, 18 mg single dose): 3 of 4
- patients with MADRS remission (total score less than or equal to 10) (Part B, IDR n=8, day seven): 87.5%
